Read-outs that look alike come from different tables or passages of the source.
What was measured:
Format in all cases: cell-based
DU-145 cells = assay: Prostate cancer cell line growth inhibition assay, DU-145; conditions: read-out: AR negative DU-145 GI50
Protocol: (§1) Prostate Cancer Cell Line Growth Inhibition Assays: The PC-3, DU-145, LNCaP, C4-2, and 22Rv1 PC cell line growth inhibition assays have been described previously (Fancher et al., Assay Drug Dev Technol. 2016, 14:453-477; Fancher et al., Assay Drug Dev Technol. 2019, 17:364-386). On day 1, each PC cell line was harvested, counted, and seeded into two 384-well assay plates, a time zero (T0) and a time 72 h (T72) plate. […] On day 2, 25 μL of the CellTiter-Glo® (CTG) (Promega Corporation, Madison, WI) detection reagent was dispensed into the wells of the TO assay plate using a Matrix electronic multichannel pipette, and the RLUs were captured on the SpectraMax® M5e (Molecular Devices LLC, Sunnyvale, CA) microtiter plate reader. […] On day 5, 25 μL of the CTG detection reagent was dispensed into the wells of the T72 assay plate using a Matrix electronic multichannel pipette, and the RLU's were captured on the SpectraMax® M5e microtiter plate reader platform.
(§2) For the 96-well AR-LBD H^3-DHT radioligand binding assay, eight minimum and maximum plate control wells were utilized to normalize the data. […] To normalize the 72 h compound exposure PC growth inhibition data, the signals from the compound treated wells were processed and expressed as % of the T72 DMSO plate controls. […]

PC-3 cells = assay: Prostate cancer cell line growth inhibition assay, PC-3; conditions: read-out: AR negative PC-3 GI50
Protocol: as §1, §2

[1] = system: AR-V7 directed transcriptional activation in PC3-AR-V7-EGFP cells; assay: AR-V7 driven PSA6.1-Luc and UBE2C-Luc reporter assays, results stated jointly; conditions: both reporters; read-out: IC50s, both PSA6-6.1-Luc and UBE2C-Luc reporters in PC3-AR-V7-EGFP cells (potency range in words)
Protocol: PSA6.1 Promoter Driven Luciferase Reporter Assay in PC3-AR-V7-GFP Cells: PC3-AR-V7-GFP cells were bulk transfected with a mixture of FuGENE® HD transfection agent and the PSA-6.1-Luc reporter plasmid (20 ng/well) combined at a 3:1 (μL:μg) ratio in Opti-MEM™ medium (Gibco, Gaithersburg, MD) that had been incubated for 25 min at RT before being added to PC3-AR-V7-GFP cells that were suspended in RPMI 1640 (Gibco) media containing 1% L-glutamine (Invitrogen), and 10% fetal bovine serum (Gemini Bio-products). Bulk transfected PC3-AR-V7-GFP cells were seeded into white opaque 384-well assay plates (Greiner Bio-one, #781080) at 3,000 cells per well in a volume of 40 μL and incubated at 5% CO2, 37° C., and 95% humidity for 24 h. After 24 h, 5 μL of compounds were transferred to assay wells and the plates were returned to the incubator for an additional 24 h before 25 μL of BrightGlo® luciferase reagent (Promega) was added to the wells and the RLU's were captured on a SpectraMax® M5e plate reader (Molecular Devices LLC) as described previously (Fancher et al., Assay Drug Dev Technol. 2019, 17:364-386).
UBE2C Promoter Driven Luciferase Reporter Assay in PC3-AR-V7-GFP Cells: The pGL4.28-UBE2C 20bpX3 luciferase reporter plasmid (Xu et al., Cancer Res 2015, 75:3663-71) was provided by Dr. Yan Dong from Tulane University. […]

[2] = Cytotoxicity counter screens to the reporter assays; conditions: counter screens to M2H, PSA-Luc, AR-V7 reporters, read-out: IC50 in cytotoxicity counter screen

GI50 (DU-145 cells; 72 h, listed as 1) [µM] | GI50 (PC-3 cells; 72 h, listed as 1) [µM] | IC50 [1] [µM] | GI50 (DU-145 cells; Homo sapiens, DU-145, 72 h) [µM] | GI50 (PC-3 cells; Homo sapiens, PC-3, 72 h) [µM] | SMILES | IC50 [2] [µM] | IC50 at 24 h ([2]; human, PC3-AR-V7-EGFP cells) [µM]
60.5 | 61.1 | 10 to 100 | – | – | Cc1ccccc1-c1cc(O)c2c(c1)CN(c1nc(C(N)=O)cs1)CCO2 [Compound S1-1] | – | –
– | – | 10 to 100 | – | – | Cc1nc(N)cc(N2CCOc3c(O)cc(-c4ccccc4C)cc3C2)n1 [Compound S1-2] | 45.6 | 45.9
– | – | – | 15.9 | 28.4 | Cc1c(-c2ccccc2F)[nH]c2ccc(CNC(=O)CCc3cn[nH]c3)cc12 [Compound S3-11] | – | –
